For one data set, the system named is Jurkat T-lymphoma cells. The data set is described as follows: viability assay (propidium iodide, flow cytometry), Jurkat cells. To be noted: for cytotoxicity: Jurkat cells, 48 hours, over the concentration range tested; for CC50: Homo sapiens, Jurkat, 48 h. Here is the method:
(§1) Jurkat T-lymphocyte-like, pro-myelocytic HL60 and erythroleukemic K562 cell lines were obtained from the American Type Culture Collection (ATCC, Rockville, Md., USA). The B9 Jurkat cell clone that overexpresses Bcl-2 was previously generated and characterised (Thomson et al (2005)). Jurkat and HL60 cells were grown in culture using RPMI 1640 media supplemented with 10% FBS, 100 units/mL penicillin and 100 μg/mL streptomycin at 37° C. in a humidified atmosphere with 5% CO2. K562 cells were grown in culture using Iscoves DMEM media supplemented with 10% FBS, 100 units/mL penicillin and 100 μg/mL streptomycin at 37° C. in a humidified atmosphere with 5% CO2.
(§2) All cells were treated at 1×10^6 per mL in media. Fresh stock solutions of ABT-737 were prepared in sterile DMSO and stored at −20° C. Stock solutions of 50 mM were then further diluted with DMSO and added to cells, maintaining the final concentration of DMSO constant at 0.1%. Jurkat and K562 cells were treated with 200 nM ABT-737, HL60 cells were treated with 50 nM ABT-737. Stocks of the compound I, pinnatoxin F and pinnatoxin G (1000×) were prepared in sterile DMSO and stored at −20° C. Concentrations were calculated using molecular weights of 401 (the compound I), 764 (pinnatoxin F) and 693 (pinnatoxin G). The final concentration of DMSO was kept constant at 0.1%.
(§3) Integrity of cell plasma membranes was assessed using propidium iodide (PI) staining at 48 hours. Cells (0.2×10^6) were loaded with 1 μg of propidium iodide (1 μL of a 1 mg/mL stock in water per 200 μL of cells). PI uptake by non-viable (stained, PI positive) cells was measured using the FC500 MPL Flow Cytometry system (Beckman Coulter Inc.). Viable cells were defined as PI-negative cells expressed as a percentage of the 10,000 cells analysed.

Data set [1] concerns mice. To be noted: cited from earlier work; for LD50 reported for other cyclic imines: intraperitoneal injection.
The test system of a further data set is HL60 cells. The data set is described as follows: viability assay (propidium iodide, flow cytometry), HL60 cells. To be noted: for CC50: Homo sapiens, HL-60, 48 h. Here is the method: as §1, §2, §3
In general terms: A flow cytometer gives signals particle by particle.

In data set [2] the test system is mice. Description: acute toxicity in mice by intraperitoneal injection. The data set is classed as in vivo. As for the experimental part: (§4) No effects were recorded at 500 or 700 μg/kg. […] Furthermore, the onset of symptoms of toxicity was much slower with the compound I than with other cyclic imines. Structure-activity relationships among cyclic imines, both in terms of acute toxicity and effects on neuromuscular transmission, point to the importance of the imine moiety in the mode of action (Munday (2008)). […] This toxicity profile prompted further investigations into the use of the compound I as an anticancer therapeutic or synergist for Bcl-2 antagonists such as the compound designated ABT-737: […]

Assay in data set [3]: as above
It is filed as in vivo. To be noted: mouse, in vivo, ip, intraperitoneal injection. Here is the method: as §4

A further data set deals with Vero cells. Description: in vitro dose-response (toxicity) against Vero cells. It is filed as cell-based. As for the experimental part:
(§5) FIG. 2. Dose response curves for the compound I designated portimine against P388 (▴) and Vero (▪) cells over 72 hours exposure.
as §4

In data set [4] the test system is Caspase-3-like DEVDase activity in wild-type Jurkat cells. The data set is described as follows: caspase assay (DEVD-AMC), wild-type Jurkat cells. The data set is classed as cell-based, human. Here is the method: (§6) Six hours after treatment 1×10^6 cells were harvested and stored as cell pellets at −80° C. Cell pellets were resuspended in 15 μL PBS, transferred to a 96-well fluorescent plate, and 95 μL buffer (100 mM HEPES, 10% sucrose, 5 mM DTT, 0.1% NP-40 and 0.1% CHAPS at pH 7.25) containing 50 μM DEVD-AMC. The rate of release of fluorescent AMC was monitored at 37° C. (λex 390 nm, λem 460 nm). Data are expressed as a fold increase in activity over vehicle-treated cells incubated for the same time.

The test system of data set [5] is Caspase-3-like DEVDase activity in Bcl-2 overexpressing Jurkat cells. The data set is described as follows: caspase assay (DEVD-AMC), Bcl-2 overexpressing Jurkat cells. It is filed as cell-based, human. As for the experimental part: as §6
The subject of the next data set is Jurkat cells. The data set is described as follows: phosphatidylserine assay (Annexin V-FITC / propidium iodide), Jurkat cells. It is filed as cell-based, human. Here is the method: Phosphatidylserine (PS) becomes exposed on the outer leaflet of the plasma membrane during apoptosis. PS binds strongly with Annexin-V, which when labelled with a fluorescent probe such as fluorescein isothiocyanate (FITC), allows the detection of cells undergoing apoptosis. Treated cells (0.1×10^6) were harvested and centrifuged at 10,000×g for 1 minute. The supernatant was removed and cells were resuspended in 100 μL Annexin-V Binding Buffer (10 mM HEPES pH 7.4, 140 mM NaCl, 2.5 mM CaCl2). Cells were stained by adding 1 μL Annexin-V FITC conjugate, and then incubated in the dark at room temperature for 15 minutes. […] Viable cells (PI negative) that stained with Annexin-V FITC were termed PS positive.

Another data set relates to P388 cells. The data set is described as follows: in vitro dose-response (toxicity) against P388 cells. It is filed as cell-based. Here is the method: as §5, §4
The subject of the next data set is caspase-3 in P388 cells. The data set is described as follows: activation of caspase-3 in P388 cells. To be noted: after 12 hours of exposure. The data set is classed as cell-based. As for the experimental part:
as §4

Data set [6] relates to Bcl-2 overexpressing Jurkat cells (B9 clone). The data set is described as follows: cells. Here is the method: as §1, §2, §3
The next data set relates to K562 cells. The data set is described as follows: viability assay (propidium iodide, flow cytometry), K562 cells. As for the experimental part:
as §1
All cells were treated at 1×10^6 per mL in media. Fresh stock solutions of ABT-737 were prepared in sterile DMSO and stored at −20° C. Stock solutions of 50 mM were then further diluted with DMSO and added to cells, maintaining the final concentration of DMSO constant at 0.1%. […] Concentrations were calculated using molecular weights of 401 (the compound I), 764 (pinnatoxin F) and 693 (pinnatoxin G). […]
Integrity of cell plasma membranes was assessed using propidium iodide (PI) staining at 48 hours. […] PI uptake by non-viable (stained, PI positive) cells was measured using the FC500 MPL Flow Cytometry system (Beckman Coulter Inc.). Viable cells were defined as PI-negative cells expressed as a percentage of the 10,000 cells analysed.

Read-outs that look alike come from different tables or passages of the source. Some results are limits rather than exact numbers.

In the case of `C=CC1=C[C@@H]2[C@@H]3O[C@]4(C[C@H]5CCC[C@@]6(CC[C@@]7(O[C@@H](CC[C@@]7(C)O)CC(=C)CCCC7=NC[C@H](C)[C@@H](C)C[C@@]72CC1)O6)O5)C[C@@H](C)[C@@H](O)[C@H]3O4` [pinnatoxin G, reference compound], the cytotoxicity result in the data set with Jurkat T-lymphoma cells was “little cytotoxicity”.

Turning to `C=C1CCCC2=NCC(C)C(C)CC23CCC(C2C=C(C)C(=O)O2)=C(C)C3/C=C(/C)C(O)CC2CCC3(CCC4(OC(CCC4(C)O)C1)O3)O2` (centres unmarked) [desmethyl spirolide C], the “LD50 reported for other cyclic imines” value in the data set with mice [1] was 0.0069 mg/kg.

In the case of `C=CC1=C[C@@H]2[C@@H]3O[C@]4(CC[C@H](O4)[C@@H](C)C[C@@H](O)C3=O)C[C@H](O)C3=NCC[C@@]32CC1` (relative stereo) [compound I, (4R,6S,9R,10R,12S,14R,14aR,18aS)-rel-16-ethenyl-1,2,4,5,7,8,9,10,11,12, 14,14a,17,18-tetradecahydro-4,12-dihydroxy-10-methyl-)13H-6,9:6,14-diepoxybenzo[2,3]cyclotetradeca[1,2-b]pyrrol-13-one], the CC50 with HL60 cells (read-out: LC50, HL60 cells, 48 h, with 50 nM ABT-737) stood at 0.8 nM; in the data set with HL60 cells (read-out: LC50, HL60 cells, 48 h, without ABT-737), 34 nM; in [6] (Homo sapiens, Jurkat, 48 h, read-out: LC50), 2.4 nM; with Jurkat T-lymphoma cells (read-out: LC50, Jurkat cells, 48 hours, without ABT-737) it was 6 nM; with Jurkat T-lymphoma cells (read-out: LC50, wild-type Jurkat cells, 48 hours, with 200 nM ABT-737), 1.4 nM; in the data set on K562 cells (Homo sapiens, K562, 48 h, read-out: LC50) it was 6.7 nM. For the same compound, the “onset of symptoms of toxicity” value in the data set with mice [2] (compared with other cyclic imines) is listed as “much slower”. Moreover, the “effects recorded at sublethal doses” value in the data set with mice [2] (intraperitoneal injection, 500 or 700 μg/kg) is given as “No effects”. Also, the LD50 – broadly, the dose expected to kill half of the subjects tested – in data set [3] was 1.57 mg/kg. In addition, the cells killed in the data set on Vero cells (10 nM, 72 hours of exposure) is reported as greater than 90%; in the data set with P388 cells (P388 cells, 10 nM, 72 hours of exposure), greater than 90%. Besides, the EC50 – broadly, the concentration at which the effect is half-maximal – in the data set on Vero cells (Chlorocebus sabaeus, 72 hours exposure) was 3 nM; in the data set with P388 cells (Mus musculus, P388 cells, 72 hours exposure), 2.7 nM. In addition, in data set [4] (Jurkat cells, 50 nM portimine), the “caspase activity time course” value is “steady increase in caspase activity over the 5 hours”. For the same compound, the caspase activation entry in [4] (wild-type Jurkat cells, increasing concentrations, 6 hours) is recorded as “dose-dependent increase”. Moreover, in data set [5] (50 nM portimine in combination with 200 nM ABT-737), the “increase in caspase activity” value stood at 60 fold. In addition, the caspase activity result in data set [5] (any concentration, 6 hours) is recorded as “no caspase activity”. Also, in the data set with Jurkat cells (50 nM portimine), the “time at which annexin V positive cells are evident” value came to 2 h. Also, in the data set on Jurkat cells (6 hours), the “cells annexin V positive” value is listed as “up to 50%”. The necrosis entry with Jurkat cells (annexin V / propidium iodide staining) is “no indication of significant necrosis”. Further, in the data set on caspase-3 in P388 cells, the “activation of caspase-3” value was “observed”. Also, the cell death result in data set [6] (Jurkat cells overexpressing Bcl-2, 48 hours, without ABT-737, up to highest concentrations tested) is “unable to trigger cell death”. Besides, the “sensitivity of K562 cells” value with K562 cells (K562 cells, 48 h, without ABT-737) is given as “relatively resistant”.

For the compound `C=C1CCCC2=NC[C@H](C)[C@@H](C)C[C@@]23CCC([C@@H]2C=C(C)C(=O)O2)=C(C)[C@@H]3/C=C(\C)[C@@H](O)C[C@H]2O[C@@]3(C[C@H]2C)O[C@@H](CC[C@@]3(C)O)C1` [spirolide H], the “toxicity to mice relative to the compound I” value in the data set on mice [1] (Roach et al (2009)) is recorded as “even less toxic to mice than the compound I”.

As for `CC1=C[C@@H](C2=C(C)[C@@H]3/C=C(\C)[C@@H](O)CC[C@@H]4C[C@@H](C)[C@@H](O4)/C(C)=C/CCC4=NCCC[C@@]43CC2)OC1=O` [gymnodimine], in the data set with mice [1], the “LD50 reported for other cyclic imines” value is 0.096 mg/kg.

`C=C1CCCC2=NC[C@H](C)[C@@H](C)C[C@@]23CCC([C@@H]2CCC(=O)O2)=C[C@@H]3[C@@H]2O[C@@]3(C[C@@H](C)C[C@H]2O3)C[C@@H]2O[C@]3(CC[C@@]4(O[C@@H](CC[C@@]4(C)O)C1)O3)C[C@H](C)[C@@H]2O` [pinnatoxin F, reference compound]: the EC50 in the data set on P388 cells (P388 cells in vitro) was greater than 1000 nM. In addition, the “LD50 reported for other cyclic imines” value in the data set with mice [1] was 0.016 mg/kg. In the data set on Jurkat T-lymphoma cells, the cytotoxicity result is on record as “little cytotoxicity”.

Regarding `CN(C)CC[C@H](CSc1ccccc1)Nc1ccc(S(=O)(=O)NC(=O)c2ccc(N3CCN(Cc4ccccc4-c4ccc(Cl)cc4)CC3)cc2)cc1[N+](=O)[O-]` [ABT-737, 4-[4-[(4′-chloro[1,1′-biphenyl]-2-yl)methyl]-1-piperazinyl]-N-[[4-[[(1R)-3-(dimethylamino)-1-[(phenylthio)methyl]propyl]amino]-3-nitrophenyl]sulfonyl]-benzamide, reference compound], in the data set on HL60 cells (HL60 cells, ABT-737 alone), the “sensitivity of HL60 cells” value is recorded as “particularly sensitive”. In addition, in [6], the direct cytotoxicity result was “not directly cytotoxic”.
